According to US20120208782A1, “Modulation of Growth of Bifidobacteria Using a Combination of Oligosaccharides Found in Human Milk” (Wyeth LLC, priority 2011, published 2012):

Columns and labels:
[1] = tested on: Bifidobacterium Infantis ATCC 15697; assay: Growth of Bifidobacterium infantis in RCM without glucose, with or without test ingredient (optical density at 595 nm, 30 hours); type: cell-based; conditions: for growth in wells containing the test ingredient versus control medium: optical density 595 nm; for effect on the growth of Bifidobacterium infantis (summary statement): summary in the description
Protocol: (§1) Reinforced Clostridia Medium (RCM) was used for cultivating the bifidobacteria. RCM without glucose was used as a control medium. RCM is a well-known medium for cultivating and enumerating anaerobes, which was first formulated by Hirsch and Grinstead, J. Dairy Res., 21:101 (1954). The test ingredients were 2′-fucosyllactose, 6′-sialyllactose and 3′-sialyllactose dissolved in the control medium at the following concentrations: 1 mg/ml 2′-fucosyllactose; 1 mg/ml 6′-sialyllactose; and, 2 mg/ml 3′-sialyllactose. The bifidobacteria were separately grown overnight anaerobically in RCM, and were then measured and diluted to an optical density of 0.1 as measured by absorbance spectroscopy at 595 nm, and were then further diluted ten-fold to make a working stock. For each test, 50 μl of working stock was added to each well of a 96 well plate containing either 200 μl of control medium (48 wells) or 200 μl test ingredient solution (48 wells). The plate was grown anaerobically for 30 hours and optical density was read at abs 595 nm every 15 minutes. The values for like wells were averaged and plotted over time (FIGS. 1, 3, and 5-7), and the area under the curve (AUC) was calculated over the 30-hour period (FIGS. 2 and 4).

[2] = tested on: Bifidobacterium Breve ATCC 15700; assay: Growth of Bifidobacterium breve in RCM without glucose, with or without test ingredient (optical density at 595 nm, 30 hours); type: cell-based
Protocol: as §1

Row | SMILES | growth in wells containing the test ingredient versus control medium ([1]; 2 mg/ml 3′-sialyllactose, after 8 hours, FIG. 7) | effect on the growth of Bifidobacterium infantis (summary statement) [1] | growth in wells containing the test ingredient versus control medium ([2]; 2 mg/ml 3′-sialyllactose, after 6 hours, optical density 595 nm, FIG. 6) | effect on the growth of Bifidobacterium breve (summary statement) ([2]; summary in the description) | growth in wells containing the test ingredient versus control medium ([1]; 1 mg/ml 6′-sialyllactose, after 12 hours, FIG. 5)
1 | CC(=O)N[C@H]1[C@H]([C@H](O)[C@H](O)CO)O[C@@](O[C@H]2[C@@H](O)[C@@H](CO)O[C@@H](O[C@H]3[C@H](O)[C@@H](O)C(O)O[C@@H]3CO)[C@@H]2O)(C(=O)O)C[C@@H]1O (stereo partly drawn) [3′-sialyllactose] | significantly greater | stimulates the growth | significantly greater | stimulates the growth | 
2 | CC(=O)N[C@H]1[C@H]([C@H](O)[C@H](O)CO)O[C@@](OC[C@H]2O[C@@H](O[C@H]3[C@H](O)[C@@H](O)[C@H](O)O[C@@H]3CO)[C@H](O)[C@@H](O)[C@H]2O)(C(=O)O)C[C@@H]1O [6′-sialyllactose] |  | stimulates the growth |  |  | significantly greater
